Reference: patent publication US9409900B2, “Compound for increasing kinase active and application thereof” (FUJIAN HAIXI PHARMACEUTICALS, INC., priority 2010, dated 2016)

molecular target: glucokinase (Homo sapiens (Human), UniProt P35557); experiment: Glucokinase Activation Assay; assay type: biochemical; conditions: 5 mM glucose, 100 nM glucokinase, G6PDH-coupled, absorbance at 340 nm, pH 7.1
Experimental: The final assay volume was 200 uL and the final buffer conditions used in this assay were as follows: 25 mM HEPES, 5 mM glucose, 1 mM ATP, 2 mM MgCl2, 1 mM NAD, 1 mM DTT, 8.5 U/mL G6PDH, 100 nM glucokinase, and 25 mM KCl. The buffer pH was 7.1. The mixture A was first made containing KCl, MgCl2, DTT and Glucose in HEPES buffer. The mixture B was made containing NAD and ATP. The test compound in DMSO solution, the mixture A, the mixture B and G6PDH were first mixed in a 96-well plate. Glucokinase was then added to initiate the reaction, and the absorbance at 340 nm was monitored every 5 mins. The activity of glucokinase was represented by the initial generation rate of glucose-6-phosphate, which was calculated by drawing the slope values from the absorbance changing curve at 340 nm vs. the time points.

Sequence of glucokinase (P35557 whole entry, species assumed): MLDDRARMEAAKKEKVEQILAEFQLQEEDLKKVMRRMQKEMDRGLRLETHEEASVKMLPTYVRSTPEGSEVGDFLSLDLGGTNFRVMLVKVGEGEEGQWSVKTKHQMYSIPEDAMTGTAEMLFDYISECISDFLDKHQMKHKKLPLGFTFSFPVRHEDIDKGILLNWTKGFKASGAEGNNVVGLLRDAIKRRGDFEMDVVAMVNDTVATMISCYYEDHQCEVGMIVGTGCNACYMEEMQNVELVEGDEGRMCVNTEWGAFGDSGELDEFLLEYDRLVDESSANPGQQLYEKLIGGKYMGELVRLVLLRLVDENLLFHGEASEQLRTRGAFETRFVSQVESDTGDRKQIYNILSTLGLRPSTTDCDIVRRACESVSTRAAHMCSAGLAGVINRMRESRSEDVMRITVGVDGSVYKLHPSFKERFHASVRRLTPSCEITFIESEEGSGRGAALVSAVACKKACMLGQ

SMILES | EC50 [nM]
CS(=O)(=O)c1ccc(Oc2ccc(Nc3ccc(C(=O)O)cn3)cc2CN2CCCC2=O)cn1 [Example 6, 6-(4-(6-(methylsulfonyl)pyridin-3-yloxy)-3-((2-oxopyrrolidin-1-yl)methyl)phenylamino) nicotinic acid] | 2000
Cc1cnc(Nc2ccc(Oc3ccc(S(C)(=O)=O)nc3)c(CN3CCCC3=O)c2)s1 [Example 13, 1-(2-(6-(methylsulfonyl)pyridin-3-yloxy)-5-(5-methylthiazol-2-ylamino)benzyl)pyrrolidin-2-one] | 2000
CN(C)C(=O)c1ccc(Oc2ccc(Nc3ccccn3)cc2CN2CCCC2=O)cn1 [Example 65, N,N-dimethyl-5-(2-((2-oxopyrrolidin-1-yl)methyl)-4-(pyridin-2-ylamino)phenoxy)picolinamide] | 5000
CN(C)C(=O)c1ccc(Oc2ccc(Nc3ccc(CCC(=O)O)cn3)cc2CN2CCCC2=O)cn1 [Example 78, 3-(6-(4-(6-(dimethylcarbamoyl)pyridin-3-yloxy)-3-((2-oxopyrrolidin-1-yl)methyl)phenylamino)pyridin-3-yl) propanoic acid] | 1500
